Measured values taken from patent publication US20260174878A1, “IRAK4 DEGRADATION AGENT AND USE THEREOF” (LEADINGTAC PHARMACEUTICAL (SHAOXING) CO., LTD., priority 2022, published 2026).

Assays:
[1] = target: T1, IRAK4 protein in normal human PBMCs (Homo sapiens, UniProt Q9NWZ3); assay: Degradation of IRAK4 protein in normal human PBMCs (AlphaLISA); assay type: cell-based; details: 24 h incubation
T1 construct: host or cells: normal human PBMCs
T1 sequence (Q9NWZ3 1-460): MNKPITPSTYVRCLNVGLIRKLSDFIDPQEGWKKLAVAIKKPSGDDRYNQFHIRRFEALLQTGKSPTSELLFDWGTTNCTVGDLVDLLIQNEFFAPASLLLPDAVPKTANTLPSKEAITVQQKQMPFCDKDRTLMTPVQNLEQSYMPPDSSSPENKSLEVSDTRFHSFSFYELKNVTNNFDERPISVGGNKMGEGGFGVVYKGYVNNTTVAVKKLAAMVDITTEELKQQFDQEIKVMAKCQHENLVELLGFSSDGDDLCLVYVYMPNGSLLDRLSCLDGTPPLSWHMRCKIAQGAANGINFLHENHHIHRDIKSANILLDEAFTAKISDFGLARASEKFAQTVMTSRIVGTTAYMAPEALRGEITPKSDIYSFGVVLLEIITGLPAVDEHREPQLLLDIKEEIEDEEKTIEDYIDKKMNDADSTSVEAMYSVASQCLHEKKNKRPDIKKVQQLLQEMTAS
Description: The cryopreserved normal human PBMCs (Milestone, PB010C) were thawed and resuspended in RPMI 1640 medium (Gibco, A1049101) supplemented with 10% fetal bovine serum (Gibco, 10099141), 100 U/mL penicillin, and 100 µg/mL streptomycin (Gibco, 15140122). After 0.95 mL of cells were plated in each well of a 24-well cell culture plate, 50 µL of diluted compound solution was added to corresponding wells with cells, such that the final concentration of the compound fell within the range of 0.01-3000 nM. The final concentration of DMSO was 0.25%. After the compound-treated cell plate was incubated in an incubator at 37° C. with 5% CO2 for 24 h, the cells were collected into 1.5 mL centrifuge tubes and centrifuged at 1000 rpm at 4° C. for 5 min. The cell pellets were washed twice with 1×DPBS. The resuspended cells were lysed with 100 μL of lysis buffer, left to stand on ice for 30 min, and then centrifuged at 14000 g at 4° C. for 10 min. The samples of the cell lysate supernatant after centrifugation were cryopreserved at −80° C. before testing. The cell lysis buffer was a Western and IP cell lysis buffer (Beyotime, P0013) supplemented with 1 mM phenylmethylsulfonyl fluoride and a protease inhibitor cocktail (Beyotime, P1008).
The total protein concentrations of the cell lysate samples were determined using a BCA protein quantification kit (Tiangen, PA115-02).
The prepared PBMC lysate samples were assayed for IRAK4 concentrations using a human IRAK4 AlphaLISA assay kit (PerkinElmer, AL3117C) to determine the degradation effects of the compounds on IRAK4. The method is as follows:
5 μL of each of IRAK4 standard solutions with different concentrations and test samples of cell lysate supernatant were added to a white 384-well plate (PerkinElmer, 6007299), and then 10 μL of 5× anti-IRAK4 […] beads was added to each well (final concentration of 10 μg/mL). The plate was incubated at room temperature for 30 min. Then 10 μL of 5× biotin-labeled anti-IRAK4 antibody was added to each well (final concentration of 1 nM), and the plate was incubated at room temperature for another 60 min. Finally, 25 μL of 2× streptavidin-labeled donor beads was added to each well (final concentration of 40 μg/mL), and the plate was incubated at room temperature for another 30 min. After the incubation was completed, AlphaLISA signal values were measured on a microplate reader EnVision (PerkinElmer, 2105) in the AlphaScreen standard mode. A standard curve was plotted from the AlphaLISA signal values of the IRAK4 standard solutions with different concentrations, and the IRAK4 concentration of each cell lysate supernatant was determined according to the corresponding concentrations on the standard curve for the AlphaLISA signal values of the test samples and by performing corresponding correction on the total protein concentration of each sample obtained by BCA quantification. The degradation rates for the compounds at each concentration were calculated by comparing the IRAK4 concentration with that of the control group. Then non-linear curve fittings for logarithmic concentration-inhibition rate were performed using GraphPad Prism 8, and the DC50 and Dmax values of the compound were obtained.

IRAK4 kinase = target: T2, IRAK4 kinase (Homo sapiens, UniProt Q9NWZ3); assay: IRAK4 kinase activity test (KinEASE-STK S1 HTRF kit); assay type: biochemical; details: IRAK4 kinase 2.5 nM, 7 μM adenosine triphosphate, 37° C. 120 min
T2 construct: purchased Carna
T2 sequence (Q9NWZ3 1-460): T1 sequence (Q9NWZ3 1-460)
Description: Then 2.5 nM IRAK4 kinase (Carna), 1 μM biotinylated polypeptide substrate (Cisbio), and 7 μM adenosine triphosphate (Sigma-Aldrich) were sequentially added, and the mixtures were incubated at 37° C. for 120 min. Subsequently, an anti-phosphoserine/threonine antibody (Cisbio) conjugated with a europium element compound and streptavidin conjugated with a modified XL665 (Cisbio) were added to the reaction system to stop the reaction. After 1 h of incubation at room temperature, the fluorescence intensity of each well was measured at the excitation wavelength of 337 nm and the emission wavelengths of 620 nm and 665 nm with a microplate reader EnVision (PerkinElmer) in the HTRF mode, and Ratio values were calculated using the formula: Ratio=(665 nm/620 nm)×10^4. The inhibition rates of the compounds at each concentration were calculated by comparison with the fluorescence intensity ratio of the control group. Then non-linear curve fittings for logarithmic concentration-inhibition rate were performed using GraphPad Prism 7, and the IC50 values of the compounds were obtained.

| SMILES | DC50 [1] [nM] | Dmax [1] [%] | IC50 (IRAK4 kinase) [nM] |
| --- | --- | --- | --- |
| O=C1CCN(c2cc(C(=O)N3CCC4(CCN(C[C@H]5CC[C@H](n6cc(NC(=O)c7cnn8ccc(N9CC%10(COC%10)C9)nc78)c(C(F)F)n6)CC5)CC4)CC3)ccc2Cl)C(=O)N1 [Example 19, N-(1-((1R,4R)-4-((9-(4-chloro-3-(2,4-dioxotetrahydropyrimidin-1(2H)-yl)benzoyl)-3,9-diazaspiro[5.5]undecan-3-yl)methyl)cyclohexyl)-3-(difluoromethyl)-1H-pyrazol-4-yl)-5-(2-oxa-6-azaspiro[3.3]heptan-6-yl)pyrazolo[1,5-a]pyrimidine-3-carboxamide] | 0.47 | 98 | 36.1 |
| COc1cc2nn([C@H]3CC[C@](O)(COCC4CCN(C(=O)c5ccc(Cl)c(N6CCC(=O)NC6=O)c5)CC4)CC3)cc2cc1NC(=O)c1cccc(C(F)(F)F)n1 [Example 33, N-(2-((1S,4S)-4-(((1-(4-chloro-3-(2,4-dioxotetrahydropyrimidin-1(2H)-yl)benzoyl)piperidin-4-yl)methoxy)methyl)-4-hydroxycyclohexyl)-6-methoxy-2H-indol-5-yl)-6-(trifluoromethyl)pyridinecarboxamide] | 1.58 | 98.6 | 10.6 |
| CN(CCC1CCN(C(=O)c2ccc(F)c(C3CCC(=O)NC3=O)c2)CC1)C(=O)[C@H]1CC[C@H](n2cc(NC(=O)c3cnn4ccc(N5CCOCC5)nc34)c(C(F)F)n2)CC1 (stereo partly drawn) [Example 17] | 0.92 | 98.9 | 9.82 |
| Cc1ccc(C(=O)N2CCC3(CCN(C[C@H]4CC[C@H](n5cc(NC(=O)c6cnn7ccc(N8CCC[C@H](O)C8)nc67)c(C(F)F)n5)CC4)CC3)CC2)cc1N1CCC(=O)NC1=O [Example 27, N-(3-(difluoromethyl)-1-((1R,4S)-4-((9-(3-(2,4-dioxotetrahydropyrimidin-1(2H)-yl)-4-methylbenzoyl)-3,9-diazaspiro[5.5]undecan-3-yl)methyl)cyclohexyl)-1H-pyrazol-4-yl)-5-((S)-3-hydroxypiperidin-1-yl)pyrazolo[1,5-a]pyrimidine-3-carboxamide] | 0.28 | 97.8 | 2.98 |
| COc1cc2nn([C@H]3CC[C@](O)(COCCC4CCN(C(=O)c5ccc(Cl)c(N6CCC(=O)NC6=O)c5)CC4)CC3)cc2cc1NC(=O)c1cccc(C(F)(F)F)n1 [Example 34] | 1.32 | 99.1 | 12.9 |
| O=C1CCN(c2cc(C(=O)N3CCC4(CCN(C[C@H]5CC[C@H](n6cc(NC(=O)c7cnn8ccc(N9CCOCC9)nc78)c(C(F)F)n6)CC5)CC4)CC3)ccc2Cl)C(=O)N1 [Example 8, N-(1-((1R,4R)-4-((9-(4-chloro-3-(2,4-dioxotetrahydropyrimidin-1(2H)-yl)benzoyl)-3,9-diazaspiro [5.5]undecan-3-yl)methyl)cyclohexyl)-3-(difluoromethyl)-1H-pyrazol-4-yl)-5-morpholinopyrazolo[1,5-a]pyrimidine-3-carboxamide] | 0.8 | 99.1 | 17 |
| COc1cc2nn([C@H]3CC[C@](O)(CN(C)CC4CCC5(CC4)CCN(C(=O)c4ccc(Cl)c(N6CCC(=O)NC6=O)c4)CC5)CC3)cc2cc1NC(=O)c1cccc(C(F)(F)F)n1 [Example 35] | 0.65 | 99.7 | 15.1 |

Now from value to compound:

| DC50 [1] [nM] | Dmax [1] [%] | IC50 (IRAK4 kinase) [nM] | SMILES |
| --- | --- | --- | --- |
| 1.11 | 98.1 | 17 | COc1ccc(C(=O)N2CCC(CCN(C)C[C@H]3CC[C@H](n4cc(NC(=O)c5cnn6ccc(N7CC8(COC8)C7)nc56)c(C(F)F)n4)CC3)CC2)cc1N1CCC(=O)NC1=O [Example 32, N-(3-(difluoromethyl)-1-((1R,4R)-4-(((2-(1-(3-(2,4-dioxotetrahydropyrimidin-1(2H)-yl)-4-methoxybenzoyl)piperidin-4-yl)ethyl)(methyl)amino)methyl)cyclohexyl)-1H-pyrazol-4-yl)-5-(2-oxa-6-azaspiro[3.3]heptan-6-yl)pyrazolo[1,5-a]pyrimidine-3-carboxamide] |
| 0.77 | 99.5 | 7.86 | CN(CCC1CCN(C(=O)c2ccc(Cl)c(N3CCC(=O)NC3=O)c2)CC1)C[C@H]1CC[C@H](n2cc(NC(=O)c3cnn4ccc(N5CCC[C@H](N)C5)nc34)c(C(F)F)n2)CC1 [Example 18, 5-((S)-3-aminopiperidin-1-yl)-N-(1-((1R,4S)-4-(((2-(1-(4-chloro-3-(2,4-dioxotetrahydropyrimidin-1(2H)-yl)benzoyl)piperidin-4-yl)ethyl)(methyl)amino)methyl)cyclohexyl)-3-(difluoromethyl)-1H-pyrazol-4-yl)pyrazolo[1,5-a]pyrimidine-3-carboxamide] |
| 0.39 | 98 | 4.64 | CN(CCC1CCN(C(=O)c2ccc(Cl)c(N3CCC(=O)NC3=O)c2)CC1)C[C@H]1CC[C@H](n2cc(NC(=O)c3cnn4ccc(N5CCOCC5)nc34)c(C(F)F)n2)CC1 [Example 9, N-(1-((1R,4R)-4-(((2-(1-(4-chloro-3-(2,4-dioxotetrahydropyrimidin-1(2H)-yl)benzoyl)piperidin-4-yl)ethyl)(methyl)amino)methyl)cyclohexyl)-3-(difluoromethyl)-1H-pyrazol-4-yl)-5-morpholinopyrazolo [1,5-a]pyrimidine-3-carboxamide] |
| 1.49 | 98.8 | 3.86 | COc1ccc(C(=O)N2CCC(CCN(C)C[C@H]3CC[C@H](n4cc(NC(=O)c5cnn6ccc(N7CCC[C@H](N)C7)nc56)c(C(F)F)n4)CC3)CC2)cc1N1CCC(=O)NC1=O [Example 15, 5-((S)-3-aminopiperidin-1-yl)-N-(3-(difluoromethyl)-1-((1R,4S)-4-(((2-(1-(3-(2,4-dioxotetrahydropyrimidin-1(2H)-yl)-4-methoxybenzoyl)piperidin-4-yl)ethyl)(methyl)amino)methyl)cyclohexyl)-1H-pyrazol-4-yl)pyrazolo[1,5-a]pyrimidine-3-carboxamide] |
| 0.27 | 98.2 | 3.36 | COc1ccc(C(=O)N2CCC(CCN(C)C[C@H]3CC[C@H](n4cc(NC(=O)c5cnn6ccc(N7CCC[C@H](O)C7)nc56)c(C(F)F)n4)CC3)CC2)cc1N1CCC(=O)NC1=O [Example 14, N-(3-(difluoromethyl)-1-((1R,4S)-4-(((2-(1-(3-(2,4-dioxotetrahydropyrimidin-1(2H)-yl)-4-methoxybenzoyl)piperidin-4-yl)ethyl)(methyl)amino)methyl)cyclohexyl)-1H-pyrazol-4-yl)-5-((S)-3-hydroxypiperidin-1-yl)pyrazolo[1,5-a]pyrimidine-3-carboxamide] |
